# Measured values taken from patent publication US20250179045A1, “LPAR1 ANTAGONISTS AND USES THEREOF” (Contineum Therapeutics, Inc., priority 2021, published 2025).
# Biological target: human LPA1 (Homo sapiens, UniProt Q92633)
# Test: In vitro functional assay of lysophosphatidic acid receptor 1 activity (calcium flux)
# Format: cell-based
# Settings: B103 cells stably expressing human LPA1; Fluo-4 NW calcium flux after lysophosphatidic acid (18:1) at EC80; compounds 100 pM to 10 μM; read-out: LPA1 IC50
# Method: In vitro functional assay of lysophosphatidic acid receptor 1 activity
# Primary compound plates were prepared in 100% DMSO (Sigma-Aldrich), secondary compound plates were prepared at 10× concentration in DiVEM (Invitrogen), and tertiary compound plates were prepared at 3x concentration in assay buffer containing HBSS (no Ca^+2/Mg^+2, Invitrogen) and 0.1% BSA (Sigma-Aldrich). Fluo-4 NW calcium assay dye (Invitrogen) was prepared as per manufacturer's recommendations in assay buffer. B103 cells stably expressing human LPA1(J. Chun lab, UCSD) were grown to confluency in DMEM media (Invitrogen) containing 10% FBS (ATCC), […] (Sigma-Aldrich) and […] Geneticin (Sigma-Aldrich), and detached with Accutase (Sigma-Aldrich) prior to assay. The freshly detached cells were resuspended in growth media and plated in black, clear-bottom 96-well plates (Costar) containing compound (i.e., secondary compound plate) at a density of 5×10^4 cells/well. Once plated, cells were left at room temperature for 30 minutes and then transferred to a 37° C., […] incubator for 24 hours. After 24 hours, the growth media was then removed and freshly prepared Fluo-4 NW calcium assay dye was added to cells. Compounds (i.e. tertiary compound plates) were then added back to the dye/cells, returned to the incubator for 30 minutes, and then kept at room temperature for an additional 30 minutes. Finally, lysophosphatidic acid (18:1) at the EC80 concentration was added and calcium flux measured using FlexStation 3 (Molecular Devices). Sigmoidal dose-response curves were generated by measuring […] over 45 sec and calculating the area under the curve. Dose response curves and IC50 values were generated using Prism (GraphPad). Compounds were tested at a final concentration range of 100 pM to 10 μM in 0.10% DMSO.
# human LPA1, sequence (Q92633 whole entry): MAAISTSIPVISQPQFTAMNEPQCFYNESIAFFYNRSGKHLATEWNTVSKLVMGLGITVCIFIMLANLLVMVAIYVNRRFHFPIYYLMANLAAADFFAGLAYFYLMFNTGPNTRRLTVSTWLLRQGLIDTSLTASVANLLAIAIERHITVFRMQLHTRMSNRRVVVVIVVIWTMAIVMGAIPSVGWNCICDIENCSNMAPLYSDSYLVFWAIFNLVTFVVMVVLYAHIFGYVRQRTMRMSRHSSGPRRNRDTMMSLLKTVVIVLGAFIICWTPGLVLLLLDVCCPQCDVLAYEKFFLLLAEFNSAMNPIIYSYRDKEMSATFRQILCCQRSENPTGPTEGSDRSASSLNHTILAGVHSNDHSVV
row,IC50 [µM],Structure (SMILES)
1,0.01 to 0.1,"Cc1ccc(NC(=O)C2(c3ccccc3C(C)C)CC(CCO)C2)c(OC(F)F)n1 (mixture of isomers) [Example 49, N-(2-(difluoromethoxy)-6-methylpyridin-3-yl)-3-(2-hydroxyethyl)-1-(2-isopropylphenyl)cyclobutane-1-carboxamide]"
2,0.01 to 0.1,"CC(C)c1ccccc1C1(C(=O)Nc2ccc(Cl)cn2)CC(O)(C(F)(F)C(=O)O)C1 (single isomer, unassigned) [Example 93-isomer A, 2-(3-((5-chloropyridin-2-yl)carbamoyl)-1-hydroxy-3-(2-isopropylphenyl)cyclobutyl)-2,2-difluoroacetic acid]"
3,0.1 to 1,"COc1ccc(NC(=O)C2(c3ccccc3C(C)C)CCC(S(=O)(=O)N(C)C)CC2)c(OC(F)F)n1 (mixture of isomers) [Example 98, N-(2-(difluoromethoxy)-6-methoxypyridin-3-yl)-4-(N,N-dimethylsulfamoyl)-1-(2-isopropylphenyl)cyclohexane-1-carboxamide]"
4,0.1 to 1,"Cc1ccc(NC(=O)C2(c3ccccc3C(C)C)CC(C)(O)C2)c(OC(F)F)n1 (single isomer, unassigned) [Example 51-isomer B, N-(2-(difluoromethoxy)-6-methylpyridin-3-yl)-3-hydroxy-1-(2-isopropylphenyl)-3-methylcyclobutane-1-carboxamide]"
5,> 1,"CC(C)c1ccccc1C1(C(=O)Nc2ccc(OC(F)F)nc2Cl)CNC(=O)C1 (stereo not drawn) [Example 107, N-(2-chloro-6-(difluoromethoxy)pyridin-3-yl)-3-(2-isopropylphenyl)-5-oxopyrrolidine-3-carboxamide]"
6,0.01 to 0.1,"Cc1ccc(NC(=O)C2(c3ccccc3C(C)C)CC(S(N)(=O)=O)C2)c(OC(F)F)n1 (mixture of isomers) [Example 69, N-(2-(difluoromethoxy)-6-methylpyridin-3-yl)-1-(2-isopropylphenyl)-3-sulfamoylcyclobutane-1-carboxamide]"
7,< 0.01,"COc1ccc(NC(=O)C2(c3ccccc3C(C)C)CC(CC(=O)O)C2)c(OC(F)F)n1 (stereo not drawn) [Example 46, 2-(3-((2-(difluoromethoxy)-6-methoxypyridin-3-yl)carbamoyl)-3-(2-isopropylphenyl)cyclobutyl)acetic acid]"
8,0.1 to 1,"COc1ccc(NC(=O)C2(c3ccccc3C(C)C)COC2)c(OC)n1 [Example 18, N-(2,6-dimethoxypyridin-3-yl)-3-(2-isopropylphenyl)oxetane-3-carboxamide]"
9,0.01 to 0.1,"COc1ccc(NC(=O)C2(c3ccccc3C(C)C)CCC(N=[N+]=[N-])CC2)c(OC(F)F)n1 (stereo not drawn) [Example 84, 4-azido-N-(2-(difluoromethoxy)-6-methoxypyridin-3-yl)-1-(2-isopropylphenyl)cyclohexane-1I-carboxamide]"
10,> 1,"CC(=O)N1CC2(C1)CC(C(=O)Nc1ccc(C)nc1OC(F)F)(c1ccccc1C(C)C)C2 [Example 74, 2-acetyl-N-(2-(difluoromethoxy)-6-methylpyridin-3-yl)-6-(2-isopropylphenyl)-2-azaspiro[3.3]heptane-6-carboxamide]"
11,0.01 to 0.1,"Cc1cc(OC(F)F)c(NC(=O)C2(c3ccccc3C(C)C)CC(O)(C(F)(F)C(=O)O)C2)cn1 (single isomer, unassigned) [Example 94-isomer B, 2-(3-((4-(difluoromethoxy)-6-methylpyridin-3-yl)carbamoyl)-1-hydroxy-3-(2-isopropylphenyl)cyclobutyl)-2,2-difluoroacetic acid]"
12,0.01 to 0.1,"Cc1cc(OC(F)F)c(NC(=O)C2(c3ccccc3C(C)C)COC2)cn1 [Example 26, N-(4-(difluoromethoxy)-6-methylpyridin-3-yl)-3-(2-isopropylphenyl)oxetane-3-carboxamide]"
13,0.01 to 0.1,"CC(C)c1ccccc1C1(C(=O)Nc2ncc(Cl)cc2OC(F)F)CC(CC(=O)O)C1 (stereo not drawn) [Example 47, 2-(3-((5-chloro-3-(difluoromethoxy)pyridin-2-yl)carbamoyl)-3-(2-isopropylphenyl)cyclobutyl)acetic acid]"
14,0.01 to 0.1,"COC[C@H](C)Oc1nc(OC)ccc1NC(=O)C1(c2ccccc2C(C)C)COC1 [Example 31, (S)-3-(2-isopropylphenyl)-N-(6-methoxy-2-((1-methoxypropan-2-yl)oxy)pyridin-3-yl)oxetane-3-carboxamide]"
15,0.1 to 1,"COc1cc(CF)ccc1NC(=O)C1(c2ccccc2C(C)C)CNC(=O)C1 (stereo not drawn) [Example 115, N-(4-(fluoromethyl)-2-methoxyphenyl)-3-(2-isopropylphenyl)-5-oxopyrrolidine-3-carboxamide]"
16,< 0.01,"Cc1ccc(NC(=O)C2(c3ccccc3C(C)C)CC(CC(=O)O)C2)c(OC(F)F)n1 (mixture of isomers) [Example 45, 2-(3-((2-(difluoromethoxy)-6-methylpyridin-3-yl)carbamoyl)-3-(2-isopropylphenyl)cyclobutyl)acetic acid]"
17,> 1,"COc1cc(C)ccc1NC(=O)C1(c2ccccc2C(C)C)CNC(=O)C1 (single isomer, unassigned) [Example 102-isomer B, 3-(2-isopropylphenyl)-N-(2-methoxy-4-methylphenyl)-5-oxopyrrolidine-3-carboxamide]"
18,0.01 to 0.1,"CC(C)c1ccccc1C1(C(=O)Nc2ncc(Br)cc2OC(F)F)COC1 [Example 24, N-(5-bromo-3-(difluoromethoxy)pyridin-2-yl)-3-(2-isopropylphenyl)oxetane-3-carboxamide]"
19,0.1 to 1,"Cc1ccc(NC(=O)C2(c3ccccc3C(C)C)CC(NC3CC3)C2)c(OC(F)F)n1 (single isomer, unassigned) [Example 40-isomer B, 3-(cyclopropylamino)-N-(2-(difluoromethoxy)-6-methylpyridin-3-yl)-1-(2-isopropylphenyl)cyclobutane-1-carboxamide]"
20,0.1 to 1,"CC(C)c1ccccc1C1(C(=O)Nc2cnc(Cl)cc2OC2CC2)COC1 [Example 32, N-(6-chloro-4-cyclopropoxypyridin-3-yl)-3-(2-isopropylphenyl)oxetane-3-carboxamide]"
21,0.01 to 0.1,"CC(C)Oc1cc(Cl)ncc1NC(=O)C1(c2ccccc2C(C)C)COC1 [Example 33, N-(6-chloro-4-isopropoxypyridin-3-yl)-3-(2-isopropylphenyl)oxetane-3-carboxamide]"
22,0.01 to 0.1,"COc1ccc(NC(=O)[C@]2(c3ccccc3C(C)C)C[C@@H](CC(N)=O)C2)c(OC(F)F)n1 [Example 118, trans-3-(2-amino-2-oxoethyl)-N-(2-(difluoromethoxy)-6-methoxypyridin-3-yl)-1-(2-isopropylphenyl)cyclobutane-1-carboxamide]"
23,0.1 to 1,"Cc1ccc(NC(=O)C2(c3ncccc3C(C)C)COC2)c(OC(F)F)n1 [Example 37, N-(2-(difluoromethoxy)-6-methylpyridin-3-yl)-3-(3-isopropylpyridin-2-yl)oxetane-3-carboxamide]"
24,0.01 to 0.1,"CC(C)c1ccccc1C1(C(=O)Nc2ncc(Cl)cc2OC(F)F)CC(O)(C(F)(F)C(=O)O)C1 (single isomer, unassigned) [Example 55-isomer B, 2-(3-((5-chloro-3-(difluoromethoxy)pyridin-2-yl)carbamoyl)-1-hydroxy-3-(2-isopropylphenyl)cyclobutyl)-2,2-difluoroacetic acid]"
25,0.01 to 0.1,"COc1cc(Cl)ncc1NC(=O)C1(c2ccccc2C(C)C)CC(O)(C(F)(F)C(=O)O)C1 (stereo not drawn) [Example 56, 2-(3-((6-chloro-4-methoxypyridin-3-yl)carbamoyl)-1-hydroxy-3-(2-isopropylphenyl)cyclobutyl)-2,2-difluoroacetic acid]"
26,0.01 to 0.1,"CC(C)c1ccccc1C1(C(=O)Nc2ccc(Br)cc2OC(F)F)CNC(=O)C1 (stereo not drawn) [Example 105, N-(4-bromo-2-(difluoromethoxy)phenyl)-3-(2-isopropylphenyl)-5-oxopyrrolidine-3-carboxamide]"
27,0.01 to 0.1,"Cc1ccc(NC(=O)C2(c3ccccc3C(C)C)CC(N3CCC3=O)C2)c(OC(F)F)n1 (mixture of isomers) [Example 68, N-(2-(difluoromethoxy)-6-methylpyridin-3-yl)-1-(2-isopropylphenyl)-3-(2-oxoazetidin-1-yl)cyclobutane-1-carboxamide]"
28,< 0.01,"COc1ccc(NC(=O)C2(c3ccccc3C(C)C)CC(Cc3nnn[nH]3)C2)c(OC(F)F)n1 (stereo not drawn) [Example 113, 3-((1H-tetrazol-5-yl)methyl)-N-(2-(difluoromethoxy)-6-methoxypyridin-3-yl)-1-(2-isopropylphenyl)cyclobutane-1-carboxamide]"
29,0.01 to 0.1,"COc1cc(Cl)ccc1NC(=O)C1(c2ccccc2C(C)C)COC1 [Example 21, N-(4-chloro-2-methoxyphenyl)-3-(2-isopropylphenyl)oxetane-3-carboxamide]"
30,0.01 to 0.1,"Cc1ccc(NC(=O)C2(c3ccccc3C(C)C)CC(Cn3ccnn3)C2)c(OC(F)F)n1 (stereo not drawn) [Example 72, 3-((1H-1,2,3-triazol-1-yl)methyl)-N-(2-(difluoromethoxy)-6-methylpyridin-3-yl)-1-(2-isopropylphenyl)cyclobutane-1-carboxamide]"
